# Reference: PMC10452266, “Divergent Pharmacology and Biased Signaling of the Four Melanocortin-4 Receptor Isoforms in Rainbow Trout (Oncorhynchus mykiss)” (Biomolecules, 2023)
# “Also recorded” adds a separate entry of the source.
# Experiments:
# ricefield eel Mc4r [1] = test system: ricefield eel Mc4r; set-up: method as in PMID 30075196, PMID 32615281; settings: stated as similar to trout Mc4rs, ref [15],[51]; cited from earlier work
# hMC4R [2] = molecular target: T1, hMC4R (Homo sapiens, UniProt P32245); settings: ref [15],[51]; cited from earlier work
# T1 construct: expressed in transfected cells; host or cells: HEK293T
# T1 sequence (P32245 whole entry): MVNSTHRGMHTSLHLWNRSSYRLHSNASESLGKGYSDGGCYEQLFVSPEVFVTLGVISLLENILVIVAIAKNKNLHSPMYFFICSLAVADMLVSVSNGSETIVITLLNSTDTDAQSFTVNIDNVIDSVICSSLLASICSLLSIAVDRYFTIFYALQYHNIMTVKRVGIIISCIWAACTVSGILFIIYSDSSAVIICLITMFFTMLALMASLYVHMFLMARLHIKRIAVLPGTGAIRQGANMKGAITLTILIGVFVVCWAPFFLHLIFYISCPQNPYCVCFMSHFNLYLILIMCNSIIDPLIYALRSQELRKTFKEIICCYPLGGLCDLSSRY
# omMc4ra1 [3] = assay: Ligand-binding assay (displacement of 125I-NDP-MSH), omMc4ra1; set-up: species or system rainbow trout (Oncorhynchus mykiss); settings: AgRP 10^-12 to 10^-7 M, MCL0020 and Ipsen 5i 10^-11 to 10^-6 M, ML00253764 10^-10 to 10^-5 M, transfected HEK293T cells
# Procedure: (§1) Human Embryonic Kidney (HEK) 293T cells, provided by American Type Culture Collection (Manassas, VA, USA), were cultured as described previously. Cells were plated into 24-well or 6-well plates pre-coated with 0.1% gelatin and transfected with plasmids by the calcium phosphate precipitation method.
# (§2) A binding assay was conducted as described previously. […].
# (§3) Binding assays were used to investigate the binding properties of omMc4rs. […].  Figure 6 Ligand-binding properties of omMc4rs. […]. Data are expressed as % of hMC4R binding ± range from duplicate measurements within one experiment. The curves are representative of at least three independent experiments.
# omMc4rb1 [4] = assay: Ligand-binding assay (displacement of 125I-NDP-MSH), omMc4rb1; set-up: species or system rainbow trout (Oncorhynchus mykiss); settings: AgRP 10^-12 to 10^-7 M, MCL0020 and Ipsen 5i 10^-11 to 10^-6 M, ML00253764 10^-10 to 10^-5 M, transfected HEK293T cells
# Procedure: as §1, §2, §3
# omMc4rb1 [5] = assay: Effect of antagonists on basal cAMP level, omMc4rb1; type: cell-based, rainbow trout (Oncorhynchus mykiss); settings: 10 nM AgRP, 1 μM MCL0020, 1 μM ML00253764 or 1 μM Ipsen 5i, 1 h, HEK293T, RIA, three independent experiments
# Procedure: (§4) Cells were plated into 24-well or 6-well plates pre-coated with 0.1% gelatin and transfected with plasmids by the calcium phosphate precipitation method.
# (§5) Intracellular cAMP levels were determined according to previous protocol.
# ciMc4r [6] = settings: stated as similar to trout Mc4rs, ref [15],[51]; cited from earlier work
# ricefield eel Mc4r [7] = test system: ricefield eel Mc4r; set-up: method as in PMID 30075196; settings: ref [15]; cited from earlier work
# saMc4r [8] = settings: stated as similar to omMc4rs, ref [51]; cited from earlier work
# Source text: (§6) Numerous constitutively active mutants have been reported in several GPCRs, resulting in various human diseases, and inverse agonism will be vital for correcting the diseases caused by activating mutations in GPCRs. The constitutive activity of teleost Mc4r may have important physiological functions.
# ciMc4r [9] = settings: stated as similar to omMc4rs, ref [51]; cited from earlier work
# Source text: as §6
# omMc4rb1 [10] = assay: ERK1/2 phosphorylation assay, omMc4rb1; type: cell-based, rainbow trout (Oncorhynchus mykiss)
# Procedure: as §1
# (§7) HEK293T cells were transfected with omMC4Rs. Twenty-four hours after transfection, cells were washed twice and starved in media without serum for 24 h. […] Rabbit anti-pERK1/2 antibody (Catalog #4370, Cell Signaling, Beverly, MA, USA) and mouse anti-β-tubulin antibody (Developmental Studies Hybridoma Bank, University of Iowa, Iowa City, IA, USA) were used in this study. The bound antibodies were quantified using ImageJ 1.44 software (National Institute of Health, Bethesda, MD, USA).
# (§8) Figure 9 ERK1/2 signaling properties of trout Mc4rs. (A) Immunoblots of pERK1/2 in cells expressing omMc4ra1, omMc4ra2, omMc4rb1, or omMc4rb2. HEK293T cells were transiently transfected with omMc4ra1, omMc4ra2, omMc4rb1, omMc4rb2, or empty vector plasmids and were starved overnight 24 h after transfection. […] Western blots were performed as described in Materials and Methods. (B) Densitometry results of basal pERK1/2 levels of omMc4ra1, omMc4ra2, omMc4rb1, and omMc4rb2. (C) Densitometry results of pERK1/2 level of omMc4ra1. (D) Densitometry results of pERK1/2 level of omMc4ra2. (E) Densitometry results of pERK1/2 level of omMc4rb1. (F) Densitometry results of pERK1/2 level of omMc4rb2.
# saMc4r [11] = settings: stated as similar to trout Mc4rs, ref [15],[51]; cited from earlier work
# omMc4ra1 [12] = assay: Effect of antagonists on basal cAMP level, omMc4ra1; type: cell-based, rainbow trout (Oncorhynchus mykiss); settings: 10 nM AgRP, 1 μM MCL0020, 1 μM ML00253764 or 1 μM Ipsen 5i, 1 h, HEK293T, RIA, three independent experiments
# Procedure: as §4, §5
# hMC4R [13] = molecular target: T1, hMC4R; settings: cited from earlier work
# saMc4r [14] = settings: saMc4r (spotted scat); ref [48],[51],[81]; cited from earlier work
# Source text: (§9) MC4R-mediated ERK1/2 signaling has a crucial role in the modulation of energy homeostasis. Although teleost Mc4rs have much higher basal activities in Gs-cAMP signaling, constitutive activation of ERK1/2 signaling is only observed in topmouth culter Mc4r but not in saMc4r and ciMc4r. […] Our data documented that these three compounds only activated ERK1/2 signaling of omMc4rb1 but not the other three omMc4rs (Figure 9).
# ciMc4r [15] = settings: ciMc4r (grass carp); ref [48],[51],[81]; cited from earlier work
# Source text: as §9
# hMC4R [16] = molecular target: T1, hMC4R; settings: ref [48],[51],[81]; cited from earlier work
# Source text: as §9
# omMc4rb2 [17] = assay: ERK1/2 phosphorylation assay, omMc4rb2; type: cell-based, rainbow trout (Oncorhynchus mykiss); settings: 1 μM α-MSH, 10 nM AgRP, 1 μM MCL0020, 1 μM Ipsen 5i or 1 μM ML00253764, 5 min, HEK293T, Western blot, at least three independent experiments
# Procedure: as §1, §7
# as §8, with “(E) Densitometry results of pERK1/2 level of omMc4rb1. (F) Densitometry results of pERK1/2 level of omMc4rb2.” left out
# omMc4rb2 [18] = assay: Effect of antagonists on basal cAMP level, omMc4rb2; type: cell-based, rainbow trout (Oncorhynchus mykiss)
# Procedure: as §4, §5
# omMc4ra2 [19] = assay: Effect of antagonists on basal cAMP level, omMc4ra2; type: cell-based, rainbow trout (Oncorhynchus mykiss); settings: 10 nM AgRP, 1 μM MCL0020, 1 μM ML00253764 or 1 μM Ipsen 5i, 1 h, HEK293T, RIA, three independent experiments
# Procedure: as §4, §5
# omMc4rb2 [20] = assay: Ligand-binding assay (displacement of 125I-NDP-MSH), omMc4rb2; set-up: species or system rainbow trout (Oncorhynchus mykiss); settings: AgRP 10^-12 to 10^-7 M, MCL0020 and Ipsen 5i 10^-11 to 10^-6 M, ML00253764 10^-10 to 10^-5 M, transfected HEK293T cells
# Procedure: as §1, §2, §3
# omMc4ra2 [21] = assay: Ligand-binding assay (displacement of 125I-NDP-MSH), omMc4ra2; set-up: species or system rainbow trout (Oncorhynchus mykiss); settings: AgRP 10^-12 to 10^-7 M, MCL0020 and Ipsen 5i 10^-11 to 10^-6 M, ML00253764 10^-10 to 10^-5 M, transfected HEK293T cells
# Procedure: as §1, §2, §3
# omMc4ra2 [22] = assay: ERK1/2 phosphorylation assay, omMc4ra2; type: cell-based, rainbow trout (Oncorhynchus mykiss); settings: 1 μM α-MSH, 10 nM AgRP, 1 μM MCL0020, 1 μM Ipsen 5i or 1 μM ML00253764, 5 min, HEK293T, Western blot, at least three independent experiments
# Procedure: as §1, §7
# as §8, with “(E) Densitometry results of pERK1/2 level of omMc4rb1. (F) Densitometry results of pERK1/2 level of omMc4rb2.” left out
# omMc4ra1 [23] = assay: ERK1/2 phosphorylation assay, omMc4ra1; type: cell-based, rainbow trout (Oncorhynchus mykiss); settings: 1 μM α-MSH, 10 nM AgRP, 1 μM MCL0020, 1 μM Ipsen 5i or 1 μM ML00253764, 5 min, HEK293T, Western blot, at least three independent experiments
# Procedure: as §1, §7
# as §8, with “(E) Densitometry results of pERK1/2 level of omMc4rb1. (F) Densitometry results of pERK1/2 level of omMc4rb2.” left out
# [24] = concluded from binding, cAMP and pERK1/2 results
smiles,measurement,setting,value
"COc1ccc(Br)cc1CCc1c(F)cccc1C1=NCCN1 [ML00253764, 2-[2-[2-(5-bromo-2-methoxyphenyl)-ethyl]-3-fluorophenyl]-4,5-dihydro-1H-imidazol]",orthosteric binding by displacing radiolabeled NDP-MSH,ricefield eel Mc4r [1],neither ML00253764 nor Ipsen 5i bound
same,orthosteric binding,hMC4R [2],bind to hMC4R orthosterically
same,displacement of 125I-NDP-MSH binding,omMc4ra1 [3],could not displace
same,displacement of 125I-NDP-MSH binding,omMc4rb1 [4],could not displace
same,effect on basal cAMP level,omMc4rb1 [5],did not cause significant effects on the cAMP levels
same,orthosteric binding by displacing radiolabeled NDP-MSH,ciMc4r [6],neither ML00253764 nor Ipsen 5i bound
same,basal cAMP generation,ricefield eel Mc4r [7],could decrease basal cAMP generation
same,effect on cAMP levels,saMc4r [8],did not cause significant effects on the cAMP levels
same,effect on cAMP levels,ciMc4r [9],did not cause significant effects on the cAMP levels
same,effect on ERK1/2 phosphorylation,"omMc4rb1 [10]; 1 μM α-MSH, 10 nM AgRP, 1 μM MCL0020, 1 μM Ipsen 5i or 1 μM ML00253764, 5 min, HEK293T, Western blot, at least three independent experiments",significantly increased
same,"biased signaling, cAMP versus ERK1/2",omMc4rb1 [10]; [24],biased allosteric modulators for omMc4rb1 with selective activation on ERK1/2 signaling
same,orthosteric binding by displacing radiolabeled NDP-MSH,saMc4r [11],neither ML00253764 nor Ipsen 5i bound
same,effect on basal cAMP level,omMc4ra1 [12],did not cause significant effects on the cAMP levels
same,basal activities of WT and constitutively active MC4R mutants,"hMC4R [13]; WT and mutants, ref [48],[51],[57],[58],[80]",decrease the basal activities
same,basal activity of hMC4R and constitutively active mutant hMC4Rs,"hMC4R [13]; hMC4R and mutants, ref [1],[28],[48],[51]",reduced by inverse agonists
same,"biased signaling, Gs-cAMP versus ERK1/2",saMc4r [14],preferred activation on ERK1/2 signaling
same,"biased signaling, Gs-cAMP versus ERK1/2",ciMc4r [15],preferred activation on ERK1/2 signaling
same,"biased signaling, Gs-cAMP versus ERK1/2",hMC4R [16],preferred activation on ERK1/2 signaling
same,effect on ERK1/2 phosphorylation,omMc4rb2 [17],no effect
same,effect on basal cAMP level,"omMc4rb2 [18]; 10 nM AgRP, 1 μM MCL0020, 1 μM ML00253764 or 1 μM Ipsen 5i, 1 h, HEK293T, RIA, three independent experiments",acted as an agonist for omMcrb2 and significantly increasing the cAMP levels; also recorded: did not cause significant effects on the cAMP levels; also recorded: could stimulate cAMP signaling
same,"biased signaling, cAMP versus ERK1/2",omMc4rb2 [18]; [24],"allosteric agonist for omMc4rb2, preferentially activating Gs-cAMP signaling"
same,effect on basal cAMP level,omMc4ra2 [19],did not cause significant effects on the cAMP levels
same,displacement of 125I-NDP-MSH binding,omMc4rb2 [20],could not displace
same,displacement of 125I-NDP-MSH binding,omMc4ra2 [21],could not displace
same,effect on ERK1/2 phosphorylation,omMc4ra2 [22],no effect
same,effect on ERK1/2 phosphorylation,omMc4ra1 [23],"not by ML00253764, Ipsen 5i, or MCL0020"
